Test results from patent US8673950B2, “Dihydrooxazol-2-amine derivatives” (Hoffmann-LaRoche Inc., priority 2010, dated 2014).

How the values were obtained:
[1] = target: mouse TAAR1 (Mus musculus (Mouse), UniProt Q923Y8); assay: Radioligand binding assay on mouse TAAR1; details: mouse TAAR1, membranes of stably transfected HEK-293 cells; first value of cell mouse/rat
[2] = target: rat TAAR1 (Rattus norvegicus (Rat), UniProt Q923Y9); assay: Radioligand binding assay on rat TAAR1; details: rat TAAR1, membranes of stably transfected HEK-293 cells; second value of cell mouse/rat
Procedure, shortened: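 Membranes from HEK293 cells stably expressing rat TAAR1, in 20 mM HEPES-NaOH pH 7.4 with 0.1 mM EDTA. Displacement of ^3[H]-(S)-4-[(ethyl-phenyl-amino)-methyl]-4,5-dihydro-oxazol-2-ylamine, nonspecific binding with 10 μM unlabeled ligand; compounds 10 pM to 10 μM in duplicate, 1 hr at 4° C. Filtration, then scintillation counting.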

Sequence of rat TAAR1 (Q923Y9 whole entry): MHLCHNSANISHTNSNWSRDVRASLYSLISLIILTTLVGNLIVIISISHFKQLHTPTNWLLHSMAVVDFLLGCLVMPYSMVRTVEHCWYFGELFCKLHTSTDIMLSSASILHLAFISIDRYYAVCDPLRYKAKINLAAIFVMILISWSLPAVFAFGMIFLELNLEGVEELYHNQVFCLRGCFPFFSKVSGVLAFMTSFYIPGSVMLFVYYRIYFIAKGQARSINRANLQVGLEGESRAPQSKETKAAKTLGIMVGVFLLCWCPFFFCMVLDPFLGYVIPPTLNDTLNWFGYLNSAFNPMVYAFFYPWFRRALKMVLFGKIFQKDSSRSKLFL
Sequence of mouse TAAR1 (Q923Y8 whole entry): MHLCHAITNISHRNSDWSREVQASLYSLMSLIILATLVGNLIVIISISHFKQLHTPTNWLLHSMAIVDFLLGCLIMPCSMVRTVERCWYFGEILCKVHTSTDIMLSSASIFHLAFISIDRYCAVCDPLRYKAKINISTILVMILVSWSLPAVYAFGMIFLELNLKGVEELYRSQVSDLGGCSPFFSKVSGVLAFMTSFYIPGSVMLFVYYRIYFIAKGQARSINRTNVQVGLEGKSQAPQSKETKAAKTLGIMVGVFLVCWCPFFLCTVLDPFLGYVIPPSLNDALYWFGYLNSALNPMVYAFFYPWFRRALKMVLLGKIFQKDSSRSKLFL

| SMILES | Ki [1] [µM] | Ki [2] [µM] |
| --- | --- | --- |
| NC1=N[C@@H](CCc2ccc(Nc3cc(C(F)(F)F)ncn3)cc2)CO1 [Example 17, (S)-4-(4-(6-(Trifluoromethyl)pyrimidin-4-ylamino)phenethyl)-4,5-dihydrooxazol-2-amine] | 0.0013 | 0.0012 |
| COc1cc(Nc2ccc(CC[C@H]3COC(N)=N3)cc2)ncn1 [Example 33, {4-[2-((S)-2-Amino-4,5-dihydro-oxazol-4-yl)-ethyl]-phenyl}-(6-methoxy-pyrimidin-4-yl)-amine] | 0.0096 | 0.0023 |
| NC1=N[C@@H](CCc2ccc(Nc3cc(Cl)ncn3)cc2)CO1 [Example 32, {4-[2-((S)-2-Amino-4,5-dihydro-oxazol-4-yl)-ethyl]-phenyl}-(6-chloro-pyrimidin-4-yl)-amine] | 0.0019 | 0.0008 |
| Cc1cncc(Nc2ccc(CC[C@H]3COC(N)=N3)cc2)n1 [Example 43, {4-[2-((S)-2-Amino-4,5-dihydro-oxazol-4-yl)-ethyl]-phenyl}-(6-methyl-pyrazin-2-yl)-amine] | 0.107 | 0.0046 |
| C[S+]([O-])c1cnc(Nc2ccc(CC[C@H]3COC(N)=N3)cc2)nc1 (stereo partly drawn) [Example 75, (4S)-4-(4-(5-(Methylsulfinyl)pyrimidin-2-ylamino)phenethyl)-4,5-dihydrooxazol-2-amine] | 0.48 | 0.104 |
| NC1=N[C@@H](CCc2ccc(Nc3ncc(Cl)cn3)nc2)CO1 [Example 71, {5-[2-((S)-2-Amino-4,5-dihydro-oxazol-4-yl)-ethyl]-pyridin-2-yl}-(5-chloro-pyrimidin-2-yl)-amine] | 0.0137 | 0.0011 |
| NC1=N[C@@H](CCc2ccc(Nc3ccc(F)cn3)cc2)CO1 [Example 3, (S)-4-(4-(5-Fluoropyridin-2-ylamino)phenethyl)-4,5-dihydrooxazol-2-amine] | 0.0022 | 0.0002 |
| NC1=N[C@@H](CCc2ccc(Nc3ccc(Cl)cn3)cc2)CO1 [Example 15, {4-[2-((S)-2-Amino-4,5-dihydro-oxazol-4-yl)-ethyl]-phenyl}-(5-chloro-pyridin-2-yl)-amine] | 0.0005 | 0.0001 |
| Cc1ccnc(Nc2ccc(CC[C@H]3COC(N)=N3)cc2)n1 [Example 48, {4-[2-((S)-2-Amino-4,5-dihydro-oxazol-4-yl)-ethyl]-phenyl}-(4-methyl-pyrimidin-2-yl)-amine] | 0.0166 | 0.0012 |
